Holding throughout (assay): Cytotoxic activity of dimers (ATP luminescence or MTS cell proliferation assay)
Common to all, as to assay type: cell-based
(In general: Tetrazolium assays rely on reduction of a dye to a coloured formazan, in cell work by metabolically active cells.)

Test [1] has as its system N87 gastric cancer cell line. Particulars: N87 cells; free dimer; 72 h incubation. As to the method: (§1) The cytotoxic activity of dimers of this invention can be tested against various cancer cell lines, such as H226 lung cancer, DMS 79 lung cancer, H187 lung cancer, N87 gastric cancer, 786-O renal cancer, and/or OVCAR3 ovarian cancer cell lines. The ability of dimers to inhibit cell proliferation can be measured by either an ATP luminescence assay or an MTS cell proliferation assay.
(§2) This is a general procedure for an ATP luminescence assay: Cells are seeded at 1×10^3 cells/well in 96-well plates for 3 h for ATP CellTiterGlo™ assays, respectively. Serial dilutions (1:3) of compounds are added to the wells. Plates are allowed to incubate for 72 h. A CellTiterGlo™ cell viability kit from Promega is used to measure ATP content of cells treated with test compounds following manufacturer's instruction. A decrease in the ATP content is a measure of decrease in cellular viability. The EC50 value—the concentration at which an agent reduces cell viability by 50% of the maximum effect—can be calculated using PRISM™ software, version 5.0 (GraphPad Software, La Jolla, Calif., USA).
(§3) The MTS cell proliferation assay was performed as follows: CellTiter 96 Aqueous Non-Radioactive Cell proliferation Kit from Promega (Madison, Wis.) is used to determine the number of viable cells in cell proliferation assay. Tumor cells are plated at certain seeding densities in sterile 384-well black clear bottom Matrix plates at 40 μL per well and incubated overnight at 37° C. in 5% CO2 before assaying. On the next day, one set of cell plates (10 plates) is used to determine time zero cell density, and 3-(4,5-dimethylthiazol-2-yl)-5-(3-carboxymethoxyphenyl)-2-(4-sulfophenyl)-2H-tetrazolium is added at 4 μL/well into 10 plates followed by incubation at 37° C. in 5% CO2 for three hours. This tetrazolium reagent is bioreduced by […] to form a formazan product which is soluble in aqueous solution. Absorbance at 490 nm is measured on an Envision reader (Perkin Elmer, Boston, Mass.). On the same day, compounds are added into remaining cell plates (T72 plates) and incubated at 37° C. in 5% CO2. After 72 hours, 4 μL MTS reagents are then added into those cell plates. The plates are further incubated at 37° C. in 5% CO2 for three hours and the absorbance values at A490 were measured on an Envision reader.

In test [2] the test system is H187 lung cancer cell line. To be noted: Homo sapiens, NCI-H187; H187 cells; free dimer; 72 h incubation. As for the experimental part:
as §1, §2, §3

The test system of test [3] is DMS 79 lung cancer cell line. To be noted: Homo sapiens; DMS 79 cells; free dimer; 72 h incubation. As for the experimental part: as §1, §2, §3

SMILES strings stand for the structures.

The IC50 is the concentration that inhibits the measured activity by half. The low end stands for higher potency, the high end for lower potency.

On to `COc1cc2c(cc1OCc1cc(COc3cc4c(cc3OC)C(=O)N3Cc5ccccc5C[C@H]3C=N4)c3ccccc3n1)N=C[C@@H]1Cc3ccccc3CN1C2=O` [IIa-07], for which the IC50 in test [1] stood at 0.25 nM. `COc1cc2c(cc1OCc1cccc(COc3cc4c(cc3OC)C(=O)N3Cc5cccnc5C[C@H]3C=N4)n1)N=C[C@@H]1Cc3ccccc3CN1C2=O` [IIa-16] displayed an IC50 in test [1] of 0.08 nM.

As for `COc1cc2c(cc1OCc1cccc(COc3cc4c(cc3OC)C(=O)N3Cc5cccnc5C[C@@H]3C=N4)n1)N=C[C@@H]1Cc3ccccc3CN1C2=O` [Dimer 100], in test [1], the IC50 turned out to be 0.1 nM.

In test [1], `COc1cc2c(cc1OCc1cncc(COc3cc4c(cc3OC)C(=O)N3Cc5ccccc5C[C@H]3C=N4)c1)N=C[C@@H]1Cc3ccccc3CN1C2=O` [IIa-06] had an IC50 of 0.14 nM. Same read-out and setting: then `COc1cc2c(cc1OCc1cccc(COc3cc4c(cc3OC)C(=O)N3Cc5ccccc5C[C@H]3CN4)n1)NC[C@@H]1Cc3ccccc3CN1C2=O` [IIa-15], with 2.88 nM.

Turning to `COc1cc2c(cc1OCc1cc(CO)cc(COc3cc4c(cc3OC)C(=O)N3Cc5ccccc5C[C@H]3C=N4)n1)N=C[C@@H]1Cc3ccccc3CN1C2=O` [IIa-08], half-maximal inhibition in test [1] (IC50) was put at 2.71 nM. As for `COc1cc2c(cc1OCc1cccc(COc3cc4c(cc3OC)C(=O)N3Cc5cc(N)ccc5C[C@H]3C=N4)n1)N=C[C@@H]1Cc3ccccc3CN1C2=O` [IIa-03], the IC50 in test [2] is 0.002 nM; in test [3], 0.002 nM; in test [1], 0.03 nM. On to `COc1cc2c(cc1OCc1cc(Cl)cc(COc3cc4c(cc3OC)C(=O)N3Cc5ccccc5C[C@H]3C=N4)n1)N=C[C@@H]1Cc3ccccc3CN1C2=O` [IIa-13], for which the half-maximal inhibitory concentration (IC50) in test [1] is 0.03 nM. `COc1cc2c(cc1OCc1cc(O)cc(COc3cc4c(cc3OC)C(=O)N3Cc5ccccc5C[C@H]3C=N4)n1)N=C[C@@H]1Cc3ccccc3CN1C2=O` [IIa-11]: in test [1], the IC50 came to 4.92 nM. For the compound `COc1cc2c(cc1OCc1cccc(COc3cc4c(cc3OC)C(=O)N3Cc5ccccc5C[C@H]3C=N4)n1)N=C[C@@H]1Cc3ccccc3CN1C2=O` [IIa-01], the IC50 was determined as 0.001 nM in test [2], 0.001 nM in test [3] and 0.02 nM in test [1].

For the origin of these results see US9822112B2, “Heteroarylene-bridged benzodiazepine dimers, conjugates thereof, and methods of making and using” (priority 2015, dated 2017).
